From US4205076A, “Lipogenesis inhibition by certain esters of substituted benzodioxincarboxylic acids” (Shell Oil Company, priority 1979, dated 1980)

System: swine adipose tissue
Test: Inhibition of lipogenesis (incorporation of radioactive carbon from glucose-U-14C into lipid) in swine adipose tissue slices
Format: cell-based
Conditions: 100 micrograms per milliliter, 37° C., 2 hours, insulin, 5% DMSO, in triplicate
Excerpt: The manner in which they cause this effect is not known with certainty; it is believed that they interfere with the synthesis of fatty acids in the tissues. Their effectiveness for this purpose has been ascertained by immersing samples of swine adipose tissue in a liquid medium containing radioactive glucose and the test chemical for a period of time, then isolating the lipid from the treated tissue and determining the incorporation of the radioactive carbon into lipid by means of scintillation counting techniques. These tests were conducted in swine adipose tissues because in swine, the primary site of lipogenesis--i.e., fatty acid synthesis--appears to be adipose tissue.
Described in more detail, tests were conducted according to the following general procedure:
150 milligrams of slices of swine adipose tissue were incubated at 37° C. for 2 hours with shaking in 3 milliliters of Krebs-Ringer bicarbonate solution containing one-half the normal calcium ion concentration, 60 micromoles of glucose, 0.5 micro-Curie of glucose-U^14 C, and 300 microunits of insulin, and 5% dimethyl sulfoxide (DMSO). The test compounds were added as a solution or suspension in DMSO and were present at a concentration of 100 micrograms per milliliter of the incubation mixture.
The incubation was terminated by addition of 0.25 milliliter of 1 N sulfuric acid. The resulting mixture was extracted with a total of 25 milliliters of chloroform/methanol (2:1 v/v). The extracts were washed according to Folch et al. (J. Biol. Chem. 226, 497-509, (1957)), air dried, and counted in a liquid scintillation counter with 15 milliliters of counting fluid (two parts toluene containing 0.4% w/v New England Nuclear Omnifluor/1 part Triton X-100). The tests were conducted in triplicate and were accompanied by control tests in which all ingredients,proportions and conditions were the same except that no test compound was included. From the data obtained were calculated the percent inhibition of lipid synthesis by the test compounds in each case. The data obtained from the tests are set out in Table 1, as the percent inhibition of lipogenesis compared to the results obtained in the control tests wherein only the test compound was omitted.

Compound | Percent Inhibition (of lipogenesis compared to control) [%]
CCOC(=O)C1COc2ccc(C(=O)c3ccccc3)cc2O1 (stereo not drawn) [Compound 5, Ethyl 7-benzoyl-2,3-dihydro-1,4-benzodioxin-2-carboxylate] | 69
Ethyl 6(and 7)-(2'-methyl-4'-thiazolyl)-2,3-dihydro-1,4-benzodioxin-2-carboxylate [Compound 6] | 79
Ethyl 2,3-dihydro-7(and 6)-(1-(hydroxyimino)ethyl)-1,4-benzodioxin-2-carboxylate [Compound 2] | 94
Ethyl 7(and 6)-acetyl-2,3-dihydro-1,4-benzodioxin-2-carboxylate [Compound 1] | 89
CCOC(=O)C1COc2ccc(C(C)=NOC)cc2O1 (stereo not drawn) [Compound 3, Ethyl 2,3-dihydro-7-(1-(methoxyimino)ethyl)-1,4-benzodioxin-2-carboxylate] | 52
Ethyl 6(and 7)-(acetylamino)-2,3-dihydro-1,4-benzodioxin-2-carboxylate [Compound 4] | 96
